Measured values from US20050059626A1, “Methods of preventing and treating viral infections using immunomodulatory polynucleotide sequences” (priority 2000, published 2005).

B1: murine IL-12: murine IL-12, 100 ng injected intraperitoneally as comparator in STC mice (protein, UniProt P43431 23-215; P43432 23-335, looked up)
Interleukin-12 subunit alpha: RVIPVSGPARCLSQSRNLLKTTDDMVKTAREKLKHYSCTAEDIDHEDITRDQTSTLKTCLPLELHKNESCLATRETSSTTRGSCLPPQKTSLMMTLCLGSIYEDLKMYQTEFQAINAALQNHNHQQIILDKGMLVAIDELMQSLNHNGETLRQKPPVGEADPYRVKMKLCILLHAFSTRVVTINRVMGYLSSA
Interleukin-12 subunit beta: MWELEKDVYVVEVDWTPDAPGETVNLTCDTPEEDDITWTSDQRHGVIGSGKTLTITVKEFLDAGQYTCHKGGETLSHSHLLLHKKENGIWSTEILKNFKNKTFLKCEAPNYSGRFTCSWLVQRNMDLKFNIKSSSSSPDSRAVTCGMASLSAEKVTLDQRDYEKYSVSCQEDVTCPTAEETLPIELALEARQQNKYENYSTSFFIRDIIKPDPPKNLQMKPLKNSQVEVSWEYPDSWSTPHSYFSLKFFVRIQRKKEKMKETEEGCNQKGAFLVEKTSTEVQCKGGNVCVQAQDRYYNSSCSKWACVPCRVRS

How the values were obtained:
HSV-1 [1] = assay: Viral titer from Vero cells pre-treated with oligonucleotide, HSV-1; assay type: cell-based, African Green monkey (Vero cells); conditions: cells infected with HSV-1
Protocol: (§1) Vero cells, a cell line derived from African Green monkey kidney, were pre-treated with varying concentrations of ISS or non-ISS oligonucleotides for varying times prior to the addition of HSV-1 or HSV-2. Oligonucleotides were used at 1 μg/ml or 10 μg/ml and the cells were incubated with the oligonucleotides for 30 seconds, 10 minutes or 24 hours. Viral titers were calculated as a percent of control titer generated by cells not treated with the oligonucleotides. The data are expressed as percent of control titer.

HSV-1 [2] = assay: Viral titer after pre-treating HSV-1 virus with oligonucleotide, Vero cells; assay type: cell-based, African Green monkey (Vero cells)
Protocol: (§2) HSV-1 or HSV-2 virus was pre-treated with varying concentrations of ISS or non-ISS oligonucleotides for 10 minutes prior to adding the mixture to plated Vero cells. Oligonucleotides were used at 1 μg/ml or 10 μg/ml. Viral titers were calculated as a percent of control titer generated by cells not treated with the oligonucleotides. The data are expressed as percent of control titer.

HSV-2 [3] = assay: Viral titer from Vero cells pre-treated with oligonucleotide, HSV-2; assay type: cell-based, African Green monkey (Vero cells); conditions: cells infected with HSV-2
Protocol: as §1

HSV-2 [4] = assay: Viral titer after pre-treating HSV-2 virus with oligonucleotide, Vero cells; assay type: cell-based, African Green monkey (Vero cells)
Protocol: as §2

HSV-2 strain MS = assay: Recurrent genital HSV-2 disease in guinea pigs; assay type: in vivo, Swiss Hartley guinea pigs; conditions: 3 times/day for 7 days starting 6 hours post inoculation (21 treatments)
HBV = assay: Chronic HBV model: serum HBV DNA and HBsAg in STC transgenic mice; assay type: in vivo, STC strain transgenic mice; conditions: STC mice; ISS 100 μg SC; murine IL-12 100 ng IP days 12, 13, 14
Protocol: ISS activity was tested in an animal model of chronic hepatitis. An ISS-containing phosphorothioate oligonucleotide (5′-[…]-3′) (SEQ ID NO:1), was delivered to STC strain transgenic mice, followed by measurement of HBV DNA and HBsAg production.
STC line mice were developed at Stanford University by Patricia Marion. The majority of these mice secrete HBV of the Ayw genotype (Galibert et al. (1979) Nature 281:646) to titers of 10^6-8 viral genome equivalents per ml of serum. STC mice were derived from the FVB strain, and were constructed by microinjection of HBV genomic DNA.
Approximately one month old mice were bled and tested for serum levels of HBsAg, which is predictive of viral DNA titer. A pool of 40 STC mice with approximately equal levels of HBsAg were selected and randomly assigned to four treatment groups of 10 animals each. The groups were treated as follows: • 1. 100 μg of ISS injected subcutaneously, once per week for 3 weeks (days 0, 7, 14) • 2. 100 μg of ISS injected subcutaneously, one injection at day 14 • 3. 100 ng of murine 1L-12 injected intraperitoneally on days 12, 13, and 14. • 4. PBS injected subcutaneously (days 0, 7, 14)
Blood samples were taken at day 0, 7, 14, 15 (22 hr after last IL-12 injection), 18, 28 and 35. Serum prepared from the blood samples was tested for HBV DNA by quantitative PCR (testing performed under contract by Hepadnavirus Testing, Inc.), and HBsAg using a commercially available EIA kit for HBsAg from Abbott Laboratories. Animals were sacrificed at day 35 and livers were collected for histologic analysis.

[5] = cells pre-treated 1 μg/ml, 30 sec
[6] = cells pre-treated 1 μg/ml, 10 min
[7] = cells pre-treated 1 μg/ml, 24 hr
[8] = cells pre-treated 10 μg/ml, 30 sec
[9] = cells pre-treated 10 μg/ml, 10 min
[10] = cells pre-treated 10 μg/ml, 24 hr
[11] = HSV-1 virus pre-treated 10 minutes with 1 μg/ml
[12] = HSV-1 virus pre-treated 10 minutes with 10 μg/ml
[13] = HSV-2 virus pre-treated 10 minutes with 1 μg/ml
[14] = HSV-2 virus pre-treated 10 minutes with 10 μg/ml

Molecule	Viral titer, percent of control titer (HSV-1 [1]; [5])	Viral titer, percent of control titer (HSV-1 [1]; [6])	Viral titer, percent of control titer (HSV-1 [1]; [7])	Viral titer, percent of control titer (HSV-1 [1]; [8])	Viral titer, percent of control titer (HSV-1 [1]; [9])	Viral titer, percent of control titer (HSV-1 [1]; [10])	Viral titer, percent of control titer (HSV-1 [2]; [11])	Viral titer, percent of control titer (HSV-1 [2]; [12])	Viral titer, percent of control titer (HSV-2 [3]; [5])	Viral titer, percent of control titer (HSV-2 [3]; [8])	Viral titer, percent of control titer (HSV-2 [4]; [13])	Viral titer, percent of control titer (HSV-2 [4]; [14])	Viral titer, percent of control titer (HSV-2 [3]; [9])	Viral titer, percent of control titer (HSV-2 [3]; [10])	Viral titer, percent of control titer (HSV-2 [3]; [6])	Viral titer, percent of control titer (HSV-2 [3]; [7])	Cumulative recurrent mean lesion days (HSV-2 strain MS)	Effect on serum HBV DNA viral titer (HBV)
5′-TCGTCGAACGTTCGTTAACGTTCG-3′ (listed as DNA, chemistry not given here) [SEQ ID NO: 11, ISS oligonucleotide]	129% of control titer	95% of control titer	87% of control titer	122% of control titer	96% of control titer	78% of control titer	100% of control titer	100% of control titer	119% of control titer	136% of control titer	101% of control titer	97% of control titer						
5′-TGACTGTGAACCTTAGAGATGA-3′ (chemistry not given here) [SEQ ID NO: 12, non-ISS control oligonucleotide, reference compound]	132% of control titer	98% of control titer	97% of control titer	141% of control titer	100% of control titer	94% of control titer	98% of control titer	101% of control titer	111% of control titer	129% of control titer	100% of control titer	97% of control titer	100% of control titer	98% of control titer				
5′-TGACTGTGAAGGTTAGAGATGA-3′ (chemistry not given here) [SEQ ID NO: 9, reference compound]	100% of control titer	99% of control titer	101% of control titer	96% of control titer	100% of control titer	97% of control titer	102% of control titer	103% of control titer	98% of control titer	103% of control titer	98% of control titer	106% of control titer	97% of control titer	99% of control titer	96% of control titer	103% of control titer		
Nc1nc2c(ncn2COCCO)c(=O)[nH]1 [Acyclovir, reference compound]																	significant reduction in cumulative recurrent mean lesion days	
B1																		effective in reducing viral titer
